Measured values taken from US10010581B2, “Syndecan peptides and polypeptides and uses thereof” (Wisconsin Alumni Research Foundation, priority 2012, dated 2018).

How the values were obtained:
Type in all cases: cell-based, human
[1] = test system: MCF10A mammary epithelial cells; test: scratch wound haptotaxis induced by clustering the α6β4 integrin; details: α6β4 integrin clustered
Method: FIG. 9. Sdc1 ectodomain fragments and β4 dominant-negative mutant specific for Sdc1/α6β4/HER2 block MCF10A mammary epithelial cell migration. Haptotaxis of MCF10A human mammary epithelial cells induced by clustering the α6β4 integrin in a scratch wound assay is used to test the efficacy of inhibitors that target the Sdc1 mechanism. Cells are incubated either with entire recombinant syndecan ectodomains (Sdc1 ectodomain (S1ED) or Sdc4 ectodomain (S4ED) as a control), or an active fragment of mouse S1ED (S1ED^200-252) containing the inhibitory site.
HaCat or MCF10A cells were grown to confluence on 48 well-plates were starved for 6 hr by serum deprivation followed by introduction of a scratch wound in the monolayer using 200 μl pipette tip. Cells were cultured an additional 18 hr in DMEM containing mAb 3E1 (10 μg/ml) and goat anti-mouse IgG (50 μg/ml), EGF (10 ng/ml) or HGF (20 ng/ml) to cause cell migration in the presence or absence of inhibitors. Images were acquired using a PlanApo 20 (0.75 numerical aperture) objective and a Photometrics CoolSnap ES camera on a Nikon Eclipse TE2000U microscopy system and wound closure quantified.
The inventor used this assay to further truncate the S1ED recombinant proteins in order to find the smallest peptide that retains full inhibitory activity (e.g., SSTNHER2). The inventor tested mouse and human S1ED and find that they compete equally. […]

UM-SCC47 cells = test: total cell number, CellTiterGLO assay; details: 4 or 7 days
Method: (§1) FIGS. 11A-F. SSTN treatment of normal (nontransformed) epithelial cells versus carcinoma (transformed) cells. Cells are plated for one day, then treated with either 3-30 μM […] (SSTN-I), 3-30 μM […] (SSTN-E), 3-30 μM SSTNHER2 (SSTN-H) or combinations of the three peptides, each at 10 μM to test their additive effect. […] The treatment times are chosen to reflect only modest effects of the peptides used singly, so that the more pronounced effect of peptides used in combination can still be observed. Treatment for longer times leads to significant cell death observed even with single peptides alone. (FIG. 11A) HaCat human keratinocytes, an example of a normal stratified epithelium, (FIG. 11B) UM-SCC47 cells, a squamous cell carcinoma derived from the tongue of a patient (a stratrified epithelium), (FIG. 11C) SCC25 cells, another squamous cell carcinoma from the tongue of a patient (FIG. 11D) MCF10A cells, a normal human breast epithelium, (FIG. 11E) MDA-MB-468 cells, a triple-negative (TN) breast carcinoma, and (FIG. 11F) SKBr3 cells, a HER2+ human breast carcinoma. Note that the “triple-negative” designation of the MDA-MB-468 carcinoma means the cells are negative for progesterone receptor, estrogen receptor and the HER2 kinase. Thus, they would not be expected to rely on HER2. Indeed, these cells are not affected by SSTNHER2, either alone or when combined with the other peptides. […] Nonetheless, the other three carcinomas are inhibited by SSTNHER2, and this is enhanced when SSTNHER2 is combined with the other SSTN peptides, leading to obvious cell death (e.g., the number of cells at the end of the experiment are less than at the beginning).
(§2) Cells (5×10^4/well in a 24-well plate) were treated with activated TAT-peptide ([…]; (SEQ ID NO:18)), inactivated TAT-peptide ([…]; (SEQ ID NO:19)) or GST fusion protein (GST, GST-S1ED or GST-S4ED). Cells death was observed by trypan blue staining or Cell Tilter-GLO Cell Viability Assay (Promega).

MDA-MB-468 cells = test: total cell number, CellTiterGLO assay; details: 4 or 7 days
Method: as §1, §2

MCF10A cells = test: total cell number, CellTiterGLO assay; details: single peptide, concentrations as high as 30 μM, 4 or 7 days
Method: as §1, §2

SKBr3 cells = test: total cell number, CellTiterGLO assay; details: 4 or 7 days
Method: as §1, §2

SCC25 cells = test: total cell number, CellTiterGLO assay; details: 4 or 7 days
Method: as §1, §2

SSTNHER2: synthetic peptide of human Sdc1 ectodomain amino acids 210-240 (SEQ ID NO:3), inhibits Sdc1 coupling of HER2 to α6β4 integrin (DFTFETSGENTAVVAVEPDRRNQSPVDQGAT; listed as Homo sapiens)
haptotaxis (migration to close a scratch wound) [1]: blocks haptotaxis | total cell number, combination with the other SSTN peptides (UM-SCC47 cells; each peptide at 10 μM): enhanced | proliferation and survival (UM-SCC47 cells; single peptide 3-30 μM): target the proliferation and survival | proliferation and survival (MDA-MB-468 cells; MDA-MB-468 (triple-negative), single peptide 3-30 μM): no effect | total cell number, combination with the other SSTN peptides (MDA-MB-468 cells; MDA-MB-468, each peptide at 10 μM): not affected | growth or survival (MCF10A cells): no effect | total cell number, combination with the other SSTN peptides (SKBr3 cells; each peptide at 10 μM): enhanced | proliferation and survival (SKBr3 cells; single peptide 3-30 μM): target the proliferation and survival | total cell number, combination with the other SSTN peptides (SCC25 cells; each peptide at 10 μM): enhanced | proliferation and survival (SCC25 cells; single peptide 3-30 μM): target the proliferation and survival
